Assay results from patent US11333660B2, “Analytical process for predicting the therapeutic effect of BH3 mimetics” (MEDIZINISCHE HOCHSCHULE HANNOVER, priority 2017, dated 2022).

Tests used:
[1] = tested on: CD19+ lymphoma cells in PBMC of a mantle-cell lymphoma patient; assay: TMRE FACS on live CD19+ cells of PBMC from a mantle-cell lymphoma patient; type: cell-based, human; details: 3 h; for effect of inducing MOMP (reduced TMRE fluorescence in CD19+ cells): 1 μM, FIG. 7; for % (MeanFL relative to negative control) / MeanFL (mean TMRE fluorescence for the live CD19+ cells): CD19 gate, BH3 mimetics 1000 nM
Method: From a blood sample that was drawn from a patient diagnosed to have mantle-cell lymphoma, PBMC were isolated by density gradient centrifugation and suspended in cell culture medium. No further separation of cells was done but all the PBMC were contained in each aliquot dispensed from the isolated PBMC. […] For measurement, TMRE was added for measuring mitochondrial membrane potential, and for discriminating CD19+ lymphoma cells from normal CD19− cells, anti-CD19 antibody, APC-labelled, was added.
Measurement was by FACS after 3 h incubation under cell culture conditions subsequent to addition of the compounds to the aliquots of the cells.
The FACS results shown in FIG. 7 were taken in one measurement for each aliquot. […] This gating was applied to the measurement of the dye of the anti-CD19 antibody (CD19 APC) as shown in the center column (b, e, h, k, n, q) (R2). The measurement results for the viable lymphoma CD19+ cells in relation to MOMP are shown in the right hand column (c, f, i, l, o, r), with TMRE fluorescence indicating MOMP, i.e. lower TMRE fluorescence indicating increased MOMP.

[2] = tested on: human CD45+ cells (BV173) from spleen of untreated control mouse; assay: TMRE FACS on human CD45+ spleen cells from the control mouse; type: cell-based; details: for TMRE fluorescence / MOMP (FIG. 10): control mouse CD45+ cells, 1 μM, 1 h; for TMRE fluorescence relative to 100% at beginning: FCCP 5 μM 15 min
Method: (§1) Cells were concurrently immunologically stained with APC-labelled anti-human CD45 antibody, to discriminate human leukemic from murine cells, and with TMRE. Measurement was by FACS, with gating for live human cells.
[…] Concurrently, the cells were immunologically stained by adding a APC-labelled anti-human CD45 antibody to identify the tumour cells, and by adding TMRE. After 1 h, cells were analysed by FACS, with the gating set according to side scatter and forward scatter to select for live cells, and to select for CD45+ cells showing TMRE fluorescence.

[3] = tested on: human CD45+ cells (BV173) from spleen of ABT-199/DEX/DAS treated mouse; assay: TMRE FACS on human CD45+ spleen cells from the ABT-199/DEX/DAS treated mouse; type: cell-based; details: for TMRE fluorescence / MOMP (FIG. 10): ABT-199/DEX/DAS treated mouse CD45+ cells, 1 μM, 1 h; for TMRE fluorescence relative to 100% at beginning: ABT-199/DEX/DAS treated mouse spleen CD45+ cells, ABT-199 10 μM 1 h, FCCP 5 μM 15 min
Method: as §1
One of these BH3 mimetics was added to a separate aliquot of the cells suspended in cell culture medium to a final concentration of 1 μM. Concurrently, the cells were immunologically stained by adding a APC-labelled anti-human CD45 antibody to identify the tumour cells, and by adding TMRE. After 1 h, cells were analysed by FACS, with the gating set according to side scatter and forward scatter to select for live cells, and to select for CD45+ cells showing TMRE fluorescence.

PBMC = assay: analytical process: TMRE fluorescence by FACS on PBMC aliquots (FIG. 1b); type: cell-based
Method: In this analysis incubation of PBMC aliquots in cell culture medium with the pharmaceutical compound, negative control or positive control was for 30 min, incubation after subsequent addition of fluorescent dye TMRE was for 10 min, both at 37° C., 5% CO2 atmosphere as cell culture conditions.

[4] = tested on: B-ALL cell line SUP-B15 (BCR-ABL-positive); assay: TMRE FACS measurement of MOMP in SUP-B15 cells; type: cell-based; details: 3 h
Method: As representatives for isolated PBMC, BM or LN mononuclear cells, the B-ALL cell lines SUP-B15, which expresses BCR-ABL (BCR-ABL-positive), and the BCR-ABL negative REH were used in the analytical process in suspension in cell culture medium RPMI1640. […] After incubation at 37° C. for 3 h, TMRE was added to a final concentration of 50 nM and the aliquots were incubated for further 15 min at 37° C., in a 5% CO2 atmosphere each time.
(§2) As a positive control, FCCP was added to one aliquot of the cell suspension to 5 μM final concentration. TMRE fluorescence was measured by FACS after 30 min incubation after addition of TMRE.

[5] = tested on: BCR-ABL negative REH cells; assay: TMRE FACS measurement of MOMP in REH cells; type: cell-based; details: ABT-199 10 nM, 3 h
Method: As representatives for isolated PBMC, BM or LN mononuclear cells, the B-ALL cell lines SUP-B15, which expresses BCR-ABL (BCR-ABL-positive), and the BCR-ABL negative REH were used in the analytical process in suspension in cell culture medium RPMI1640. As a positive control for MOMP, FCCP was added to 5 μM to one aliquot, as a negative control an aliquot of the suspended cells was used with addition of the same volume of physiological saline, and ABT-199 was added to 10 nM final concentration. After incubation at 37° C. for 3 h, TMRE was added to a final concentration of 50 nM and the aliquots were incubated for further 15 min at 37° C., in a 5% CO2 atmosphere each time.

PBMC from a CLL patient = assay: TMRE FACS on PBMC from a CLL patient; type: cell-based, human; details: 3 h, ABT-199 1 μM, FCCP 5 μM, mock MFI 121
Method: (§3) PBMC were isolated by density gradient centrifugation using Biocoll from the heparinized blood sample of a patient diagnosed to have CLL (ABT-199, Venetoclax, is approved for treatment of CLL with 17p-deletion). As a comparison, PBMC from a healthy donor were isolated. PBMC were suspended in RPMI1640 cell culture medium and transferred as aliquots into separate tubes, to which ABT-199 was added to a final concentration of 1 μM and incubated at 37° C. for 3 h in a 5% CO2 atmosphere. Subsequently, TMRE was added to 50 nM and aliquots were further incubated for 30 min, then analysed by FACS according to the invention. As a negative control (mock), physiological saline was added, as a positive control FCCP to 5 μM (FCCP).

[6] = tested on: PBMC from a healthy donor; assay: TMRE FACS on PBMC from a healthy donor; type: cell-based, human; details: 3 h, ABT-199 1 μM, FCCP 5 μM, mock MFI 232
Method: as §3

[7] = tested on: PBMC or BM mononuclear cells from ALL patients; assay: TMRE FACS on PBMC or BM cells from ALL patients; type: cell-based, human; details: ABT-199 1 μM, 3 h, ALL samples (n=12)
Method: (§4) PBMC or BM mononuclear cells were isolated by density gradient centrifugation from blood or bone marrow samples originating from patients who were newly diagnosed as ALL (n=12), from blood or bone marrow samples originating from CML patients in chronic phase (CML-CP, n=7), and from blood samples obtained from healthy volunteers (n=6). In accordance with the analytical process, PBMC or BM cells were incubated in cell culture medium with ABT-199 added to 1 μM for 3 h at 37° C. in a 5% CO2 atmosphere for cell culture conditions, followed by addition of TMRE to 50 nM and incubation for another 30 min, then analysed by FACS for fluorescence by TMRE.

[8] = tested on: PBMC or BM mononuclear cells from CML patients in chronic phase; assay: TMRE FACS on PBMC or BM cells from CML-CP patients; type: cell-based, human; details: ABT-199 1 μM, 3 h, CML-CP samples (n=7)
Method: as §4

PBMC from healthy donors = assay: TMRE FACS on PBMC from healthy volunteers; type: cell-based, human; details: ABT-199 1 μM, 3 h, healthy donors (n=6)
Method: as §4

SUP-B15 cells = assay: propidium iodide (PI) staining of SUP-B15 cells; type: cell-based; details: 1 μM, 24 h process
Method: as §2
For comparison, apoptosis was measured by propidium iodide (PI) staining, the entire process having a duration of 24 h.

[9] = tested on: in vitro cultivated BV173 cells; assay: TMRE FACS on in vitro cultivated BV173 cells; type: cell-based, human; details: in vitro cultured BV173, ABT-199 10 μM 1 h; for TMRE fluorescence relative to 100% at beginning: FCCP 5 μM 15 min
[10] = tested on: blood cells obtained from a CLL patient; details: 6 h after contact in vitro; cited from earlier work
[11] = CD19+ cells, BH3 mimetics 1 μM, FCCP 5 μM, in comparison to the negative control
[12] = control mouse spleen CD45+ cells, ABT-199 10 μM 1 h

Row | SMILES | effect of inducing MOMP (reduced TMRE fluorescence in CD19+ cells) [1] | mean TMRE fluorescence relative to negative control [1, 11] | % (MeanFL relative to negative control) ([1]; FCCP 5 μM) | MeanFL (mean TMRE fluorescence for the live CD19+ cells) ([1]; FCCP 5 μM) | TMRE fluorescence / MOMP (FIG. 10) [2] | TMRE fluorescence / MOMP (FIG. 10) [3] | MFI (TMRE) (PBMC from a CLL patient) | MFI (TMRE) [6] | TMRE fluorescence relative to 100% at beginning [2, 12] | TMRE fluorescence relative to 100% at beginning [3] | TMRE fluorescence relative to 100% at beginning [9] | also measured
1 | Cc1c(-c2ccc(N3CCc4cccc(C(=O)Nc5nc6ccccc6s5)c4C3)nc2C(=O)O)cnn1CC12CC3CC(CC(C3)C1)C2 [A1331852] | less pronounced effect | 29.1% | 29.1% | 203 | strongly reduced TMRE fluorescence | strongly reduced TMRE fluorescence | – | – | – | – | – | –
2 | CC1(C)CCC(CN2CCN(c3ccc(C(=O)NS(=O)(=O)c4ccc(NCC5CCOCC5)c([N+](=O)[O-])c4)c(Oc4cnc5[nH]ccc5c4)c3)CC2)=C(c2ccc(Cl)cc2)C1 [ABT-199] | effective in inducing MOMP | 9.3% | 9.3% | 65 | – | – | 53 | 242 | approx. 60% | no response | approx. 60% | FACS peak distribution of TMRE fluorescence (PBMC; ABT-199 5 μM to 10 μM, 30 min incubation): the peak at the position of the positive control increasing with the concentration; induction of apoptosis by the process of the invention (TMRE) ([4]; 1 μM): significant induction of apoptosis; reduction of MFI (TMRE) ([4]; ABT-199 10 nM, versus negative control): approx. 40%; MFI (TMRE) in comparison to the negative control [5]: essentially remains unaffected; induction of apoptosis (TMRE FACS) [7]: strong induction of apoptosis; induction of apoptosis (TMRE FACS) [8]: essentially no induction of apoptosis; induction of apoptosis (TMRE FACS) (PBMC from healthy donors): essentially no induction of apoptosis; induction of apoptosis by PI staining (SUP-B15 cells): significant induction of apoptosis; proportion of cells with MOMP [2, 12]: 40%; proportion of cells with MOMP [9]: 40%
3 | CN(C)CC[C@H](CSc1ccccc1)Nc1ccc(S(=O)(=O)NC(=O)c2ccc(N3CCN(Cc4ccccc4-c4ccc(Cl)cc4)CC3)cc2)cc1[N+](=O)[O-] [ABT-737] | effective in inducing MOMP | 9.9% | 9.9% | 69 | reduced TMRE fluorescence | reduced TMRE fluorescence | – | – | – | – | – | –
4 | N#CC(C#N)=NNc1ccc(OC(F)(F)F)cc1 [FCCP, carbonyl cyanide-4-(trifluoro-methoxy)phenylhydrazone] | – | 15.6% | 15.6% | 109 | – | – | 60 | 106 | ~20% | ~20% | ~20% | mean fluorescence intensity (MFI) of TMRE (PBMC; incubation 30 min, TMRE 10 min, 37° C., negative control MFI 612): 95
5 | CN1CC[C@H](c2c(O)cc(O)c3c(=O)cc(-c4ccccc4Cl)oc23)[C@H](O)C1 [Flavopiridol] | – | – | – | – | – | – | – | – | – | – | – | mitochondrial membrane depolarization (JC-1) [10]: mitochondrial membrane depolarization was detected
6 | Cc1c(-c2c(-c3ccc(F)o3)sc3ncnc(O[C@H](Cc4ccccc4OCc4ccnn4CC(F)(F)F)C(=O)O)c23)ccc(OCCN2CCN(C)CC2)c1Cl [S63845] | less pronounced effect | – | 56.7% | 396 | high TMRE fluorescence | high TMRE fluorescence | – | – | – | – | – | proportion of cells without MOMP [1, 11]: 56.7%
